Measurements published in patent US6436943B1 (dated 2002).

Row | Compound | melting point [°C]
1 | COC(=O)C1=C(C)NC(c2ccccn2)=NC1c1ccccc1C (stereo not shown) | 100 to 101
2 | COC(=O)C1=C(C)NC(c2ccccn2)=NC1c1ccc(F)cc1[N+](=O)[O-] (stereo not shown) | 175 to 176
3 | COC(=O)C1=C(C)NC(c2ccccn2)=NC1c1ccc(-n2ccnn2)cc1 (stereo not shown) | 149 to 150
4 | COC(=O)C1=C(C)NC(c2ccccn2)=NC1C1CCCCC1.Cl (stereo not shown) | 149 to 150
5 | COC(=O)C1=C(C)NC(c2ccccn2)=NC1c1ccccc1[N+](=O)[O-] (stereo not shown) | 167 to 168
6 | COC(=O)C1=C(C)NC(c2ccccn2)=NC1c1ccccc1F (stereo not shown) | 217 to 218
7 | COOCC1=C(C)NC(c2ccccn2)=NC1c1ccco1 (stereo not shown) | 122 to 124
8 | CCCOOCC1=C(C)NC(c2ccccn2)=NC1c1ccccc1Cl (stereo not shown) | 105 to 110
9 | COOCC1=C(C)NC(c2ccccn2)=NC1c1ccccc1O (stereo not shown) | 131 to 132
10 | COC(=O)C1=C(C)NC(c2ccccn2)=NC1c1cccc2ncc(-c3ccccc3)cc12 (stereo not shown) | 176 to 177

Second part, the molecule after the results:

Row | melting point [°C] | Compound
11 | 101 to 103 | CCOC(=O)C1=C(C)NC(c2ccccn2)=NC1c1ccccc1 (stereo not shown)
12 | 103 to 104 | COC(=O)C1=C(C)NC(c2ccccn2)=NC1c1ccccc1OC (stereo not shown)
13 | 141 to 143 | COC(=O)C1=C(C)NC(c2ccccn2)=NC1c1ccc(C#N)cc1 (stereo not shown)
14 | 101 to 103 | CCOC(=O)C1=C(C)NC(c2ccncc2)=NC1c1ccccc1Cl (stereo not shown)
15 | 108 to 109 | COC(=O)C1=C(C)NC(c2ccccn2)=NC1c1ccsc1 (stereo not shown)
16 | 93 to 95 | CC1=C(C(=O)OC(C)C)C(c2ccccc2Cl)N=C(c2ccccn2)N1 (stereo not shown)
17 | 125 to 127 | COC(=O)C1=C(C)NC(c2ccccn2)=NC1c1cccc(Cl)c1Cl (stereo not shown)
18 | 172 to 173 | COC(=O)C1=C(C)NC(c2ccccn2)=NC1c1cccc2sc(-c3ccccc3)nc12 (stereo not shown)
19 | 176 to 178 | CCCCOC(=O)C1=C(C)NC(c2ccccn2)=NC1c1ccccc1Cl (stereo not shown)
20 | 131 to 133 | COC(=O)C1=C(C)NC(c2cccnc2)=NC1c1ccccc1Cl (stereo not shown)
21 | 151 to 153 | COC(=O)C1=C(C)NC(c2ccccn2)=NC1c1cc([N+](=O)[O-])ccc1Cl (stereo not shown)
22 | 201 to 202 | COC(=O)C1=C(C)NC(c2ccccn2)=NC1c1ccc(Cl)cc1 (stereo not shown)
23 | 122 to 123 | COOCC1=C(C)NC(c2ccccn2)=NC1c1cccc(Cl)c1 (stereo not shown)
24 | 179 to 180 | COOCC1=C(C)NC(c2ccccn2)=NC1c1cccc([N+](=O)[O-])c1 (stereo not shown)
25 | 138 to 139 | CC1=C(C(=O)OCCC#N)C(c2ccccc2Cl)N=C(c2ccccn2)N1 (stereo not shown)
